Test results taken from ChEMBL document CHEMBL3046429, “Synthesis, molecular modeling study, preliminary antibacterial, and antitumor evaluation of N-substituted naphthalimides and their structural analogues” (2013).
≈ marks a conversion by molar mass, not a printed value.

Assays:
Type in all cases: functional
OVCAR-4 = assay: Growth inhibition of Homo sapiens (human) OVCAR4 cells at 10 uM after 48 hr by coulter counter analysis; conditions: OVCAR-4, 48 h, read-out: GI
NCI-H226 = assay: Growth inhibition of Homo sapiens (human) NCI-H226 cells at 10 uM after 48 hr by coulter counter analysis; conditions: NCI-H226, 48 h, read-out: GI
ACHN = assay: Growth inhibition of Homo sapiens (human) ACHN cells at 10 uM after 48 hr by coulter counter analysis; conditions: read-out: GI
A549 = assay: Growth inhibition of Homo sapiens (human) A549/ATCC cells at 10 uM after 48 hr by coulter counter analysis; conditions: A549, 48 h, read-out: GI
UO-31 = assay: Growth inhibition of Homo sapiens (human) UO31 cells at 10 uM after 48 hr by coulter counter analysis; conditions: UO-31, 48 h, read-out: GI
IGROV-1 = assay: Growth inhibition of Homo sapiens (human) IGROV1 cells at 10 uM after 48 hr by coulter counter analysis; conditions: IGROV-1, 48 h, read-out: GI
Bacillus subtilis = assay: Antibacterial activity against Bacillus subtilis assessed as growth inhibition after 24 hr by two fold serial dilution method
MDA-MB-468 = assay: Growth inhibition of Homo sapiens (human) MDA-MB-468 cells at 10 uM after 48 hr by coulter counter analysis; conditions: MDA-MB-468, 48 h, read-out: GI
UACC-62 = assay: Growth inhibition of Homo sapiens (human) UACC62 cells at 10 uM after 48 hr by coulter counter analysis; conditions: UACC-62, 48 h, read-out: GI
SK-MEL-28 = assay: Growth inhibition of Homo sapiens (human) SK-MEL-28 cells at 10 uM after 48 hr by coulter counter analysis; conditions: SK-MEL-28, 48 h, read-out: GI
SF-268 = assay: Growth inhibition of Homo sapiens (human) SF268 cells at 10 uM after 48 hr by coulter counter analysis; conditions: SF-268, 48 h, read-out: GI
TK-10 = assay: Growth inhibition of Homo sapiens (human) TK10 cells at 10 uM after 48 hr by coulter counter analysis; conditions: TK-10, 48 h, read-out: GI
T47D = assay: Growth inhibition of Homo sapiens (human) T47D cells at 10 uM after 48 hr by coulter counter analysis; conditions: read-out: GI
CCRF-CEM = assay: Growth inhibition of Homo sapiens (human) CCRF-CEM cells at 10 uM after 48 hr by coulter counter analysis; conditions: read-out: GI
KM12 = assay: Growth inhibition of Homo sapiens (human) KM12 cells at 10 uM after 48 hr by coulter counter analysis; conditions: KM12, 48 h, read-out: GI
HL-60(TB) = assay: Growth inhibition of Homo sapiens (human) HL-60(TB) cells at 10 uM after 48 hr by coulter counter analysis; conditions: HL-60, 48 h, read-out: GI
786-0 = assay: Growth inhibition of Homo sapiens (human) 786-0 cells at 10 uM after 48 hr by coulter counter analysis; conditions: 786-0, 48 h, read-out: GI
SF-539 = assay: Growth inhibition of Homo sapiens (human) SF539 cells at 10 uM after 48 hr by coulter counter analysis; conditions: SF-539, 48 h, read-out: GI
HT-29 = assay: Growth inhibition of Homo sapiens (human) HT-29 cells at 10 uM after 48 hr by coulter counter analysis; conditions: HT-29, 48 h, read-out: GI
SK-OV-3 = assay: Growth inhibition of Homo sapiens (human) SKOV3 cells at 10 uM after 48 hr by coulter counter analysis; conditions: SK-OV-3, 48 h, read-out: GI
SNB-75 = assay: Growth inhibition of Homo sapiens (human) SNB75 cells at 10 uM after 48 hr by coulter counter analysis; conditions: SNB-75, 48 h, read-out: GI
SK-MEL-5 = assay: Growth inhibition of Homo sapiens (human) SK-MEL-5 cells at 10 uM after 48 hr by coulter counter analysis; conditions: SK-MEL-5, 48 h, read-out: GI
COLO 205 = assay: Growth inhibition of Homo sapiens (human) COLO205 cells at 10 uM after 48 hr by coulter counter analysis; conditions: COLO 205, 48 h, read-out: GI
U-251 = assay: Growth inhibition of Homo sapiens (human) U251 cells at 10 uM after 48 hr by coulter counter analysis; conditions: U-251, 48 h, read-out: GI
HCT-15 = assay: Growth inhibition of Homo sapiens (human) HCT15 cells at 10 uM after 48 hr by coulter counter analysis; conditions: HCT-15, 48 h, read-out: GI
RXF 393 = assay: Growth inhibition of Homo sapiens (human) RXF393 cells at 10 uM after 48 hr by coulter counter analysis; conditions: RXF 393, 48 h, read-out: GI
LOX IMVI = assay: Growth inhibition of Homo sapiens (human) LOXIMVI cells at 10 uM after 48 hr by coulter counter analysis; conditions: read-out: GI
MDA-MB-231 = assay: Growth inhibition of Homo sapiens (human) MDA-MB-231/ATCC cells at 10 uM after 48 hr by coulter counter analysis; conditions: MDA-MB-231, 48 h, read-out: GI
SW-620 = assay: Growth inhibition of Homo sapiens (human) SW620 cells at 10 uM after 48 hr by coulter counter analysis; conditions: SW-620, 48 h, read-out: GI
Escherichia coli = assay: Antibacterial activity against Escherichia coli assessed as growth inhibition after 24 hr by two-fold serial dilution method
CAKI-1 = assay: Growth inhibition of Homo sapiens (human) CAKI-1 cells at 10 uM after 48 hr by coulter counter analysis; conditions: CAKI-1, 48 h, read-out: GI
OVCAR-8 = assay: Growth inhibition of Homo sapiens (human) OVCAR8 cells at 10 uM after 48 hr by coulter counter analysis; conditions: OVCAR-8, 48 h, read-out: GI
DU-145 = assay: Growth inhibition of Homo sapiens (human) DU145 cells at 10 uM after 48 hr by coulter counter analysis; conditions: DU-145, 48 h, read-out: GI
OVCAR-3 = assay: Growth inhibition of Homo sapiens (human) OVCAR3 cells at 10 uM after 48 hr by coulter counter analysis; conditions: OVCAR-3, 48 h, read-out: GI
BT-549 = assay: Growth inhibition of Homo sapiens (human) BT549 cells at 10 uM after 48 hr by coulter counter analysis; conditions: BT-549, 48 h, read-out: GI
SF-295 = assay: Growth inhibition of Homo sapiens (human) SF295 cells at 10 uM after 48 hr by coulter counter analysis; conditions: SF-295, 48 h, read-out: GI
EKVX = assay: Growth inhibition of Homo sapiens (human) EKVX cells at 10 uM after 48 hr by coulter counter analysis; conditions: read-out: GI

Question: With O=C1c2nccnc2C(=O)N1c1c(Cl)cc(Cl)cc1Cl as the compound, how does the inhibition of growth at 10 µM (OVCAR-4) read?
Answer: The inhibition of growth at 10 µM was -0.64%.

Question: And the inhibition of growth at 10 µM (NCI-H226)?
Answer: Its inhibition of growth at 10 µM is 9.41%.

Question: And the inhibition of growth at 10 µM (ACHN)?
Answer: The inhibition of growth at 10 µM was -0.27%.

Question: What about the inhibition of growth at 10 µM (A549) of the same compound?
Answer: Its inhibition of growth at 10 µM is -11.7%.

Question: What about the inhibition of growth at 10 µM (UO-31) of the same compound?
Answer: The inhibition of growth at 10 µM was 72.9%.

Question: What about the inhibition of growth at 10 µM (IGROV-1) of the same compound?
Answer: Its inhibition of growth at 10 µM is 7.24%.

Question: And the MIC (Bacillus subtilis)?
Answer: The MIC was 20 µg/mL (≈ 60.9 µM).

Question: And the inhibition of growth at 10 µM (MDA-MB-468)?
Answer: The inhibition of growth at 10 µM was 17.8%.

Question: What about the inhibition of growth at 10 µM (UACC-62) of the same compound?
Answer: Its inhibition of growth at 10 µM is 1.42%.

Question: And the inhibition of growth at 10 µM (SK-MEL-28)?
Answer: Its inhibition of growth at 10 µM is -3.36%.

Question: What about the inhibition of growth at 10 µM (SF-268) of the same compound?
Answer: Its inhibition of growth at 10 µM is 7.64%.

Question: What about the inhibition of growth at 10 µM (TK-10) of the same compound?
Answer: The inhibition of growth at 10 µM was -4.45%.

Question: What about the inhibition of growth at 10 µM (T47D) of the same compound?
Answer: Its inhibition of growth at 10 µM is 5.37%.

Question: What about the inhibition of growth at 10 µM (CCRF-CEM) of the same compound?
Answer: The inhibition of growth at 10 µM was 3.38%.

Question: And the inhibition of growth at 10 µM (KM12)?
Answer: The inhibition of growth at 10 µM was 10.3%.

Question: And the inhibition of growth at 10 µM (HL-60(TB))?
Answer: Its inhibition of growth at 10 µM is 1.42%.

Question: What about the inhibition of growth at 10 µM (786-0) of the same compound?
Answer: The inhibition of growth at 10 µM was 2.39%.

Question: And the inhibition of growth at 10 µM (SF-539)?
Answer: Its inhibition of growth at 10 µM is 8.66%.

Question: What about the inhibition of growth at 10 µM (HT-29) of the same compound?
Answer: The inhibition of growth at 10 µM was 4.24%.

Question: And the inhibition of growth at 10 µM (SK-OV-3)?
Answer: The inhibition of growth at 10 µM was 4.55%.

Question: And the inhibition of growth at 10 µM (SNB-75)?
Answer: Its inhibition of growth at 10 µM is 47.4%.

Question: What about the inhibition of growth at 10 µM (SK-MEL-5) of the same compound?
Answer: Its inhibition of growth at 10 µM is -6.79%.

Question: What about the inhibition of growth at 10 µM (COLO 205) of the same compound?
Answer: The inhibition of growth at 10 µM was 8.27%.

Question: What about the inhibition of growth at 10 µM (U-251) of the same compound?
Answer: The inhibition of growth at 10 µM was -7.03%.

Question: And the inhibition of growth at 10 µM (HCT-15)?
Answer: Its inhibition of growth at 10 µM is 7.09%.

Question: What about the inhibition of growth at 10 µM (RXF 393) of the same compound?
Answer: The inhibition of growth at 10 µM was -25.2%.

Question: What about the inhibition of growth at 10 µM (LOX IMVI) of the same compound?
Answer: Its inhibition of growth at 10 µM is -0.26%.

Question: What about the inhibition of growth at 10 µM (MDA-MB-231) of the same compound?
Answer: The inhibition of growth at 10 µM was 7.23%.

Question: What about the inhibition of growth at 10 µM (SW-620) of the same compound?
Answer: Its inhibition of growth at 10 µM is -7.54%.

Question: What about the “-logMIC” value (Escherichia coli) of the same compound?
Answer: The value was 4.68.

Question: And the MIC (Escherichia coli; Escherichia coli, 24 h)?
Answer: Its MIC is 6.9 µg/mL (≈ 21 µM).

Question: And the inhibition of growth at 10 µM (CAKI-1)?
Answer: The inhibition of growth at 10 µM was 18%.

Question: What about the inhibition of growth at 10 µM (OVCAR-8) of the same compound?
Answer: Its inhibition of growth at 10 µM is 11%.

Question: What about the inhibition of growth at 10 µM (DU-145) of the same compound?
Answer: The inhibition of growth at 10 µM was 18.6%.

Question: What about the inhibition of growth at 10 µM (OVCAR-3) of the same compound?
Answer: Its inhibition of growth at 10 µM is -15.4%.

Question: And the inhibition of growth at 10 µM (BT-549)?
Answer: The inhibition of growth at 10 µM was 4.48%.

Question: And the inhibition of growth at 10 µM (SF-295)?
Answer: Its inhibition of growth at 10 µM is -2.42%.

Question: And the inhibition of growth at 10 µM (EKVX)?
Answer: Its inhibition of growth at 10 µM is 8.2%.
